According to patent US20100009907A1, “Glucagon-Like Peptides and Uses Thereof” (AMYLIN PHARMACEUTICALS, INC., priority 2006, published 2010):
Where no end group is shown, it is not given here.

What was measured:
[1] = target: T1, GLP-1 receptor (RINm5F cell membranes) (Rattus norvegicus, UniProt P32301); test: GLP-1 receptor binding assay (GLP RBA), [125I]GLP-1 displacement; conditions: [125I]GLP-1 tracer
T1 construct: RINm5F insulinoma cells expressing endogenous GLP-1 receptors; endogenous in cells; host or cells: RINm5F cell membranes
T1 sequence (P32301 22-463): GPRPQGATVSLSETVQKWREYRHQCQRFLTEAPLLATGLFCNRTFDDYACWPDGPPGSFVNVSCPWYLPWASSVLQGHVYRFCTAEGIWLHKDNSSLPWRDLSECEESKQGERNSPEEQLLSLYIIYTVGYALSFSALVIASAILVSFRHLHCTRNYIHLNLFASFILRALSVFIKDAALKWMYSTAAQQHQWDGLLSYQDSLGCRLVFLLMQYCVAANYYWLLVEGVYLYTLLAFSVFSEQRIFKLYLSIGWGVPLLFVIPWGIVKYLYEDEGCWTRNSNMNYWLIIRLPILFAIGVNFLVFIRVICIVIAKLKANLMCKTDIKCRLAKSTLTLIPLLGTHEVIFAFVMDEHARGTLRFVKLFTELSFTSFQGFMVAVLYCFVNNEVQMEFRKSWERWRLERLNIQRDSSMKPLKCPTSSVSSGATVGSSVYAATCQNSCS
Experimental: Reaction mixtures are filtered through glass filter pads presoaked with 0.3% PEI solution and rinsed with ice-cold phosphate buffered saline. Bound counts are determined using a scintillation counter. Binding affinities are calculated using GraphPad Prism software (GraphPad Software, Inc., San Diego, Calif.).

[2] = target: T2, rat thyroid carcinoma 6-23 clone 6 cells expressing endogenous GLP-1 receptors (Rattus norvegicus, UniProt P32301); test: GLP-1 cAMP (6-23) cyclase assay; type: cell-based
T2 construct: rat thyroid carcinoma 6-23 clone 6 cells or RINm5F insulinoma cells expressing endogenous GLP-1 receptors; endogenous in cells; host or cells: rat thyroid carcinoma 6-23 clone 6 cells
T2 sequence (P32301 22-463): T1 sequence (P32301 22-463)
Experimental: Cells, and peptide or buffer solutions are combined in 384-well plates and incubated at room temperature in air for 30-minutes. cAMP content can then be measured according to recommendations in the Perkin-Elmer AlphaScreen™ kit instructions using the Perkin Elmer Fusion fluorimeter and data are analyzed using XLfit software (IDBS).

[3] = Acute food intake assay (FI Assay); type: in vivo, NIH/Swiss mice; conditions: 1000 μg/kg intraperitoneal, relative to vehicle
Experimental: The effect of various test peptides on food intake is investigated using an acute food intake assay. This assay measures food consumption in lean, group-housed, overnight-fasted NIH/Swiss mice. Twelve mice are housed three to a cage. […] Decreased, as well as increased, food intake is measured. Testing of the various doses of the polypeptide generates ED50s.
Female NIH/Swiss mice (8-24 weeks old) are group housed with a 12:12 hour light:dark cycle with lights on at 0600. Water and a standard pelleted mouse chow diet are available ad libitum, except as noted. Animals are fasted starting at approximately 1500 hrs, 1 day prior to experiment. The morning of the experiment, animals are divided into experimental groups.
At time=0 min, all animals are given an intraperitoneal injection of vehicle or compound in an amount ranging from about 63 to 1000 μg/kg, and immediately given a pre-weighed amount (10-15 g) of the standard chow.

| Compound | EC50 [2] | Food Intake % inhibition 30 min [3] | Food Intake % inhibition 60 min [3] | Food Intake % inhibition 120 min [3] | other results |
| --- | --- | --- | --- | --- | --- |
| EGTYTNDVTEYLEEKAAKEFIEWLIKGKPKKIRYS-NH2 (C-terminus assumed) [compound 37] | > 1000 nM |  |  |  | IC50 [1]: 22 nM |
| CC[C@H](C)[C@H](NC(=O)[C@H](CC(C)C)NC(=O)[C@H](Cc1c[nH]c2ccccc12)NC(=O)[C@H](CCC(=O)O)NC(=O)[C@@H](NC(=O)[C@H](Cc1ccccc1)NC(=O)[C@H](CCC(=O)O)NC(=O)[C@H](CCCCN)NC(=O)[C@H](C)NC(=O)[C@H](C)NC(=O)[C@H](CCCCN)NC(=O)[C@H](CCC(=O)O)NC(=O)[C@H](CCC(=O)O)NC(=O)[C@H](CC(C)C)NC(=O)[C@H](Cc1ccc(O)cc1)NC(=O)[C@H](CCC(=O)O)NC(=O)[C@@H](NC(=O)[C@@H](NC(=O)[C@H](CC(=O)O)NC(=O)[C@H](CC(N)=O)NC(=O)[C@@H](NC(=O)[C@H](Cc1ccc(O)cc1)NC(=O)[C@@H](NC(=O)CNC(=O)[C@H](CCC(=O)O)NC(=O)[C@H](C)NC(=O)[C@@H](N)Cc1c[nH]cn1)[C@@H](C)O)[C@@H](C)O)C(C)C)[C@@H](C)O)[C@@H](C)CC)C(N)=O [compound 42] | 0.22 nM |  |  |  |  |
| CC[C@H](C)[C@H](NC(=O)[C@H](Cc1ccccc1)NC(=O)[C@H](CCC(=O)O)NC(=O)[C@H](CCCCN)NC(=O)[C@H](C)NC(=O)[C@H](C)NC(=O)[C@H](CCC(N)=O)NC(=O)CNC(=O)[C@H](CCC(=O)O)NC(=O)[C@H](CC(C)C)NC(=O)[C@H](Cc1ccc(O)cc1)NC(=O)[C@H](CO)NC(=O)[C@H](CO)NC(=O)[C@@H](NC(=O)[C@H](CC(=O)O)NC(=O)[C@H](CO)NC(=O)[C@@H](NC(=O)[C@H](Cc1ccccc1)NC(=O)[C@@H](NC(=O)CNC(=O)[C@H](CCC(=O)O)NC(=O)[C@H](C)NC(=O)[C@@H](N)Cc1c[nH]cn1)[C@@H](C)O)[C@@H](C)O)C(C)C)C(=O)N[C@@H](C)C(=O)N[C@@H](Cc1c[nH]c2ccccc12)C(=O)N[C@@H](CC(C)C)C(=O)N[C@H](C(=O)N[C@@H](CCCCN)C(=O)NCC(=O)N[C@@H](CCCNC(=N)N)C(N)=O)C(C)C [compound 3] |  | 13% | 13% | 11% |  |
| HAEFTYTNDVTEYLEEKAAKEFIEWLIKGGPSSGAPPPS-NH2 [compound 19] |  | 51% | 67% | 75% | Food Intake % inhibition 180 min ([3]; 180 min): 77% |
| HAEGTYTNDTEYLEEKAAKEFIEWLIKGKPKKIRYS-NH2 (C-terminus assumed) [compound 39] | > 1000 nM |  |  |  |  |
| HAEGTYTNDVTEYLEEAAKEFIEWLIKGKPKKIRYS-NH2 (C-terminus assumed) [compound 30] | > 1000 nM |  |  |  |  |
